Measurements: patent US5338830A, “Biologically active peptide derived from chicken (chicken CNP)” (Suntory Limited, priority 1990, dated 1994)
“Also recorded” adds a separate entry of the source. Where two headings read alike, the source gives them in different places. Where a SMILES comes first, the peptide text is derived from it. Bridges are numbered along the chain shown (N, C = ends). Where no end group is shown, it is not given here.

Experiments:
chicken rectum = system: chicken rectum
Description: Relaxant activity in chicken rectum was measured in accordance with the method of […] and Currie ([…]. and Matsuo, H., Biochem. Biophys. Res. Commun., 118, 131-139, 1984; Currie, […]., Cole, […]. and Needleman, P. Science, 221, 71-73, 1983). The values are averages of six repeats. […] Although cCNP lacked the tail sequence at the C-terminal which had been considered to be important for analog peptides in displaying biological activities such as diuretic action (Watanabe, T. X., Noda, Y., Chino […]. and Imai, M. Eur. J.

Male SD rats [1] = experiment: Diuretic and natriuretic action in anesthetized rats (urine amount, electrolyte excretion); format: in vivo, rat; details: for excretion Cl- / excretion K+ / excretion Na+ / excretion urine: urine 15 min after versus before, Mean±S.E.M.
Description: (§1) Diuretic action of cCNP was measured in accordance with the method described in […] et al and Sudoh et al ([…]. et al., Biochem. Biophys. Res. Commun., 118, 131-139, 1984; Sudoh, […]., Minamino, N. and Matsuo, H. Nature, 322, 78-81, 1988). Male SD rats (weight 300-400 g) were anesthetized by intraperitoneally receiving 50 mg/kg pentobarbitol, and a tracheal cannula (PE-240, Cray Adams) was provided to secure an airway. A cannula for measuring the blood pressure (PE-50) was inserted into one of the femoral arteries, and Ringer solution was injected through a cannula (PE-10) inserted into the femoral venous, at a constant rate of 1.8 ml/hr. Urine was collected into a test tube through a bladder cannula of silastic tube (inside diameter 0.02 inch, outside diameter 0.037 inch, Dow Corning). The collection of urine was carried out for 15 min before the administration of the peptides, at 5 min intervals after the administration till 15 min, and then at appropriate time intervals. The effect of the peptides was measured by comparing the amount of the urine samples and the concentration of the electrolyte in the urine samples, as well as by the change of the blood pressure. In the above assay, a predetermined amount of cCNP was dissolved in 0.1N acetic acid, and neutralized with one tenth volume of 1.3M Tris solution. Then, the solution was diluted with 50 μl of a sterile physiological water, and administered through the cervical vein. […] In Table 2, diuretic and natriuretic responses are shown in terms of the amount of the urine, the percentages in the […] of the excretion of Na^+, K^+ and Cl^- (Means±S.E.M.), in which urine samples were collected separately over 15 min before and after the intravenous injection of the peptides to anesthetized rats. Three to six rats were used for each peptide. […] In a typical experiment, the blood pressure at the contract phase of heart was decreased by about 5% over a period of 30 min by the action of 30 μg/kg of cCNP. […] Biochem. Biophys. Res. Commun., 168, 863-870, 1990).

Male SD rats [2] = experiment: Vasodepressor activity (change of blood pressure) in anesthetized rats; format: in vivo, rat
Description: as §1

[3] = 30 μg/kg intravenous, anesthetized rats
[4] = 90 μg/kg intravenous, anesthetized rats
[5] = 200 μg/kg intravenous, anesthetized rats
[6] = 3.0 μg/kg intravenous, anesthetized rats

**Q.** Which relative activity (chicken rectum) does the source give for `CC[C@H](C)[C@@H]1NC(=O)[C@H](CCCNC(=N)N)NC(=O)[C@H](CC(=O)O)NC(=O)[C@H](CC(C)C)NC(=O)[C@H](CCCCN)NC(=O)[C@H](C(C)C)NC(=O)CNC(=O)[C@H](Cc2ccccc2)NC(=O)[C@@H](NC(=O)[C@H](CO)NC(=O)[C@H](CCCNC(=N)N)NC(=O)[C@H](CO)NC(=O)[C@H](CC(C)C)NC(=O)CN)CSSC[C@@H](C(=O)O)NC(=O)CNC(=O)[C@H](CC(C)C)NC(=O)CNC(=O)[C@H](CO)NC(=O)[C@H](CCSC)NC(=O)[C@H](CO)NC(=O)CNC1=O` [cCNP] (H-GLSRSCFGVKLDRIGSMSGLGC-OH; disulfide 6-22) here?
**A.** 321

**Q.** And the “relaxant activity higher than fANP-21 (fold)” value (chicken rectum; cCNP versus fANP-21)?
**A.** ~5 times

**Q.** And the “relaxant activity higher than α-hANP (fold)” value (chicken rectum; cCNP versus α-hANP)?
**A.** about 2 times

**Q.** And the “excretion Cl-” value (Male SD rats [1]; [3])?
**A.** 171 ± 2%

**Q.** And the “excretion K+” value (Male SD rats [1]; [3])?
**A.** 145 ± 12%

**Q.** What about the “excretion Na+” value (Male SD rats [1]; [3]) of the same compound?
**A.** 160 ± 9%

**Q.** What about the excretion urine (Male SD rats [1]; [3]) of the same compound?
**A.** 153 ± 32%

**Q.** And the “excretion Cl-” value (Male SD rats [1]; [4])?
**A.** 214 ± 5%

**Q.** What about the “excretion K+” value (Male SD rats [1]; [4]) of the same compound?
**A.** 163 ± 02%

**Q.** And the “excretion Na+” value (Male SD rats [1]; [4])?
**A.** 193 ± 6%

**Q.** And the excretion urine (Male SD rats [1]; [4])?
**A.** 261 ± 19%

**Q.** And the “excretion Cl-” value (Male SD rats [1]; [5])?
**A.** 338 ± 107%

**Q.** And the “excretion K+” value (Male SD rats [1]; [5])?
**A.** 174 ± 18%

**Q.** And the “excretion Na+” value (Male SD rats [1]; [5])?
**A.** 385 ± 50%

**Q.** What about the excretion urine (Male SD rats [1]; [5]) of the same compound?
**A.** 293 ± 50%

**Q.** What about the “diuretic and natriuretic actions compared to that of α-hANP” value (Male SD rats [1]; anesthetized rats, ratio to α-hANP) of the same compound?
**A.** about 1/100

**Q.** What about the “natriuretic action (in words)” value (Male SD rats [1]; rats) of the same compound?
**A.** natriuretic action; also recorded: increase dose dependently

**Q.** What about the “decrease of blood pressure” value (Male SD rats [2]; [3]) of the same compound?
**A.** 4.4 ± 1.9%

**Q.** And the “decrease of the blood pressure at the contract phase of heart” value (Male SD rats [2]; 30 μg/kg, over a period of 30 min, typical experiment, anesthetized rats)?
**A.** about 5%

**Q.** And the “decrease of blood pressure” value (Male SD rats [2]; [4])?
**A.** 0.3 ± 2.0%

**Q.** What about the “decrease of blood pressure” value (Male SD rats [2]; [5]) of the same compound?
**A.** 11.5 ± 1.5%

**Q.** What about the “vasodepressor activity (in words)” value (Male SD rats [2]; rats) of the same compound?
**A.** weak vasodepressor action; also recorded: vasodepressor activity; also recorded: increase dose dependently

**Q.** What does the source list for “α-hANP: A-type (atrial) natriuretic peptide used as comparison; activity set to 100 (SLRRSSCFGGRMDRIGAQSGLGCNSFRY; ends and bridges not checked; cysteine pairing not given here; UniProt P01160 124-151, looked up) [reference compound]”?
**A.** relative activity (chicken rectum; relaxant activity of equimolar amount of peptides, activity of hANP = 100, averages of six repeats): 100; excretion Cl- (Male SD rats [1]; [6]): 362 + 34%; excretion K+ (Male SD rats [1]; [6]): 220 ± 22%; excretion Na+ (Male SD rats [1]; [6]): 461 ± 41%; excretion urine (Male SD rats [1]; [6]): 414 ± 46%; decrease of blood pressure (Male SD rats [2]; [6]): 9.0 ± 2.5%
